Test results as given in PMC6449605, “Pyrophosphate Stimulates the Phosphate-Sodium Symporter of Trypanosoma brucei Acidocalcisomes and Saccharomyces cerevisiae Vacuoles” (mSphere, 2019).

Experiments:
[1] = biological target: T1, Pho91p (Saccharomyces cerevisiae, UniProt P27514); experiment: two-electrode voltage clamp, Xenopus oocytes; assay type: cell-based; details: ND96, room temperature
T1 construct: gene PHO91; full length, cRNA expressed in Xenopus laevis oocytes
T1 sequence (P27514 1-894): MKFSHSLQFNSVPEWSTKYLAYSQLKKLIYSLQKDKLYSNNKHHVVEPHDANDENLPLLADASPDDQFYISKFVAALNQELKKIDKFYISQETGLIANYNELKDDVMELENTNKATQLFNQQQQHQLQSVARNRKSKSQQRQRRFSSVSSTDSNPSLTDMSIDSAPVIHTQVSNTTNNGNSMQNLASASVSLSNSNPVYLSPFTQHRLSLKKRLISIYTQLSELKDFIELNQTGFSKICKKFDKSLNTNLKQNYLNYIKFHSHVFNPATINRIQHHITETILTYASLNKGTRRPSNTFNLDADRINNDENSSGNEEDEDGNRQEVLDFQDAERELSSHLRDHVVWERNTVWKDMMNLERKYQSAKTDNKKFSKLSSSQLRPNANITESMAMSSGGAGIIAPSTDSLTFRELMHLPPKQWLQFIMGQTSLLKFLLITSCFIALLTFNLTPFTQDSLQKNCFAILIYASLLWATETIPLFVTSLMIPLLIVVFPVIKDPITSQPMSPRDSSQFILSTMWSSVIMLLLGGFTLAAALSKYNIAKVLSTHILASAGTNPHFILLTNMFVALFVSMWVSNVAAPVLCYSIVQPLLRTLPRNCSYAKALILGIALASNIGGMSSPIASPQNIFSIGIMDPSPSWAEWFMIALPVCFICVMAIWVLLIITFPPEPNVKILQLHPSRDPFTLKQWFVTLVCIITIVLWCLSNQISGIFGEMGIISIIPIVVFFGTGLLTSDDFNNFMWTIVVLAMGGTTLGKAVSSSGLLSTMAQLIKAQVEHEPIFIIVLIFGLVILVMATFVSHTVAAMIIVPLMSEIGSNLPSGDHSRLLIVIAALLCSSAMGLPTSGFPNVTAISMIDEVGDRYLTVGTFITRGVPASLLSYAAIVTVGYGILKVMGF

[2] = biological target: T2, TbPho91 (Trypanosoma brucei, UniProt Q383G2); experiment: two-electrode voltage clamp, Xenopus oocytes; assay type: cell-based; details: activator, modulates 10 mM Pi-evoked current; ND96 pH 7.5; room temperature
T2 construct: full length, cRNA expressed in Xenopus laevis oocytes (also in giant vacuoles of pho91-delta yeast)
T2 sequence (Q383G2 1-728): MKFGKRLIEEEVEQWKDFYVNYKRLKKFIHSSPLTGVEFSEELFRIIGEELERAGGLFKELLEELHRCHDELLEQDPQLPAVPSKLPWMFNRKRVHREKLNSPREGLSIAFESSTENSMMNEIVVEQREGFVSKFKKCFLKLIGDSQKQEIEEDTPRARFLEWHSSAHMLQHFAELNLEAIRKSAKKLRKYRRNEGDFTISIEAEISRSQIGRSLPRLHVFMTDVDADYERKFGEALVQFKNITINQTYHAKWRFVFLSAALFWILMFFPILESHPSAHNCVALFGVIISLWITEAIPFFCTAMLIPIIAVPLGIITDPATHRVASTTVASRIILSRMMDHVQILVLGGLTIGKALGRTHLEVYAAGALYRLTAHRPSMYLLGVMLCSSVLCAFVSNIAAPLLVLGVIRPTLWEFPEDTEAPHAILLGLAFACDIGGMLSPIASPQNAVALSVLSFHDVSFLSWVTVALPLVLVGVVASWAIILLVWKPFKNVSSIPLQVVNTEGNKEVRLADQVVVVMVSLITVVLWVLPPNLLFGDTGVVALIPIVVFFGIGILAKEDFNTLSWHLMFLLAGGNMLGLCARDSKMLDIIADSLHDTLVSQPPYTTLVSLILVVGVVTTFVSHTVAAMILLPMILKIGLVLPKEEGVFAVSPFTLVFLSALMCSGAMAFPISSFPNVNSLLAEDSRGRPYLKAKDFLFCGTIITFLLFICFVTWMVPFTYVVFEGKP

`O=P(O)(O)OP(=O)(O)O` [PPi] was tested, and the “inward current amplitude at 10 mM” value ([1]; activator, 10 mM Na+/PPi) was 447.8 ± 84.1 nA.

With `O=P(O)(O)O` [Pi] the “inward current amplitude at 10 mM” value ([1]; 10 mM Na+/Pi, Na+ co-transported) was 146.8 ± 41.6 nA.

`O=P(O)(O)OP(=O)(O)OP(=O)(O)O` [polyP3] was tested, and the “threshold for significant amplification of Na+/Pi current” value [2] was 200 µM and the “inward current amplitude at 10 mM” value ([1]; activator, 10 mM Na+/polyP3) was 771.6 ± 168.4 nA.
